# Values of other authors, collected in patent publication US4898737A, “Controlled absorption pharmaceutical composition” (Elan Corporation plc, priority 1983, dated 1990).
smiles,measurement,setting,value
"CC(C)NCC(O)COc1cccc2ccccc12 (stereo not drawn) [propranolol, 1-(isopropylamino)-3-(1-naphthyloxy)-2-propanol]",time of peak plasma concentrations,after a single oral dose,one to two
same,metabolism,oral,extensively and rapidly metabolised
same,urinary excretion,oral,excreted in the urine as free and conjugated propranolol and as metabolites
